Test results as given in patent US8632914B2, “Triazolium and imidazolium salts and uses thereof” (University Health Network, priority 2008, dated 2014).
Read-outs that look alike come from different tables or passages of the source.

Legend:
P. falciparum = assay: Anti-Plasmodium activity: viability of P. falciparum cultures (pLDH enzyme assay); format: cell-based; settings: read-out: IC50 (μM) P. falciparum
Description: P. falciparum cultures were grown in O+ blood obtained by venipuncture of volunteers. Cultures of the laboratory line ItG were maintained by the method of Trager and Jensen (Trager, W.; Jensen, J. Science 1976, 193, 673) using RPM, 1640 supplemented with 10% human serum (a kind gift obtained under ethical consent from the Chemo Day Care department of the Princess Margaret Hospital, Toronto, Canada) and 50 μM hypoxanthine (RPMI-A). The effects of the test compounds on the viability of P. falciparum cultures were determined using a Lactate Dehydrogenase (LDH) enzyme assay specific to the enzyme found in Plasmodium falciparum (pLDH) (Prudhomme, J. G.; Sherman, I. W. J Immunol Methods 1999, 229(1-2), 169; Makler, M. T.; Ries, J. M.; Williams, J. A.; Bancroft, J. E.; Piper, R. C.; Gibbins, B. L.; Hinrichs, D. J. Am J Trop Med Hyg 1993, 48(6), 739). Briefly, compounds to be tested were dissolved in DMSO afford a solution having a concentration of 10 mg/mL. Two-fold serial dilutions were then produced in 50 μL of RPMI-A in a 96 well plate and then 50 μL of parasite culture (2% hematocrit, 2% parasitemia) were added to each well and the plates were then incubated at 37° C. in 95% N2, 3% CO2, and 2% O2 for 72 hr. The contents of the wells were then re-suspended using a multi-channel pipettor and a 15 μL sample was removed from each well and was added to 100 μL of pLDH enzyme assay mixture (Prudhomme, J. G.; Sherman, I. W. J Immunol Methods 1999, 229(1-2), 169). After 1 hr the absorbance of the wells at 650 nm was determined using a ThermoMax microplate reader (Molecular Devices, Sunnyvale, Calif.). The IC50 values of individual compounds were determined using a non-linear regression analysis of the data^19 using the computer program SigmaPlot (Jandel Scientific) and are reported in Table 1. The IC50 values represent the mean±standard error calculated from four independent determinations. To verify if the poor viability of the cultures was related to inhibited merozoite invasion, samples were taken from treated wells and the presence of extracellular merozoites was confirmed by microscopy.

CHO cells = assay: Viability of CHO cells (MTT); format: cell-based; settings: Cricetulus griseus, read-out: IC50 (μM) CHO cells
Description: CHO cells (ATCC, Manassas, Va.) were grown in RPMI-1640 supplemented with 10% fetal calf serum (Sigma, St. Louis, Mo.), 25 mM HEPES and gentimicin (RPMI-10). Cells were seeded in 96 well plates and grown to 50% confluency in 100 μL of RPMI-10 per well prior to the addition of either DMSO alone, or a 10 mg/mL solution of a test compound of the disclosure in DMSO. Compound gradients were prepared by adding 90 μL of RPMI-10 mixed with 10 μL of compound solution to the first well in the series, mixing, transferring 100 μL to the next well, and repeating until the next-to-last well was reached. After 48 hrs, the viability of the cells was determined by discarding the media in the wells and adding 100 μL of 10 mg/mL of 3-[4,5-dimethylthiazol-2-yl]-2,5-diphenyltetrazolium bromide (MTT, Sigma, St. Louis, Mo.) in RPMI-10, incubating the plates for a further hour, and then removing the media and adding 100 μL of DMSO and reading the absorbance at 650 nm (Campling, B. G.; Pym, J.; Galbraith, P. R.; Cole, S. P. Leuk Res 1988, 12(10), 823). The IC50 values of individual compounds were determined using a non-linear regression analysis of the dose-response curve using the computer program SigmaPlot (Jandel Scientific) and are reported in Table 1.

[1] = strain line ItG, 72 hr incubation, pLDH assay, mean of four determinations ± standard error
[2] = CHO cells, 48 hrs, MTT, mean of four determinations ± standard error

Compound	IC50 (P. falciparum; [1]) [µM]	IC50 (CHO cells; [2]) [µM]	melting point [°C]	IC50 (P. falciparum; 72 h) [µM]	IC50 (CHO cells; CHO, 48 h) [µM]
Cn1c[n+](C)c(-c2ccccc2)c1-c1ccccc1 [QT104, 1,3-Dimethyl-4,5-diphenyl-1H-imidazolium iodide]	3.1 ± 0.4	385 ± 42			
C[n+]1ccn(CCCCCCCCn2cc[n+](C)c2)c1 [QT71, 1,8-Bis-(3-methylimidazolium-1-yl)octane diiodide]	4.7 ± 0.9	452 ± 49			
C[n+]1ccn(CCCCCCCCCCCCn2cc[n+](C)c2)c1 [QT89, 1,12-Bis-(3-methylimidazolium-1-yl)dodecane diiodide]	0.009 ± 0.001	26 ± 5			
Cl.Cl.c1cn(CCCCCCCCCCCCCCCn2ccnc2)cn1			98 to 99		
C[n+]1ccn(CCCCCCCCCCCCCCn2cc[n+](C)c2)c1 [QT107, 1,14-Bis-(3-methylimidazolium-1-yl)tetradecane diiodide]	0.0032 ± 0.0002	11 ± 2			
Clc1ccc(Cn2cc[n+](Cc3ccc(Cl)cc3)c2)cc1 [QT80, 1,3-Bis-(4-chlorobenzyl)imidazolium chloride]				9 ± 2	105 ± 1
Brc1ccc(Cn2cc[n+](Cc3ccc4ccccc4c3)c2)cc1 [QT95, 1-(4-Bromobenzyl)-3-(naphthalen-2-ylmethyl)imidazolium bromide]	0.73 ± 0.03	27 ± 5			
C[n+]1ccn(CCCCCCCCCCn2cc[n+](C)c2)c1 [QT88, 1,10-Bis-(3-methylimidazolium-1-yl)decane diiodide]	0.082 ± 0.009	57 ± 5			
O=[N+]([O-])c1ccc(C[n+]2ccn(-c3ccc(-c4ccc(-n5cc[n+](Cc6ccc([N+](=O)[O-])cc6)c5)cc4)cc3)c2)cc1 [QT103, 4,4′-Bis-[3-(4-nitrobenzyl)-1H-imidazolium-1-yl]biphenyl dibromide]	0.026 ± 0.003	14 ± 2			
O=C(Cn1cc[n+](CC(=O)c2ccc(Cl)cc2)c1)c1ccc(Cl)cc1 [QT91, 1,3-Bis-[2-oxo-2-(4-chlorophenyl)ethyl]imidazolium bromide]	2.6 ± 0.1	53 ± 2			
CCCn1cc[n+](C)c1 [QT73, 3-Methyl-1-propylimidazolium bromide]	230 ± 83	998 ± 83			
c1ccc2cc(Cn3cc[n+](Cc4ccc5ccccc5c4)c3)ccc2c1 [QT81, 1,3-Bis-(naphthalen-2-yl-methyl)imidazolium bromide]	0.9 ± 0.4	27 ± 1			
Cl.Cl.c1cn(CCCCCCCCCCn2ccnc2)cn1			143 to 144		
C[n+]1ccn(Cc2ccc(-c3ccc(Cn4cc[n+](C)c4)cc3)cc2)c1 [QT113, 4,4′-Bis-(3-methylimidazolium-1-yl-methyl)biphenyl diiodide]	0.12 ± 0.04	125 ± 13			
Clc1cccc(Cn2cc[n+](Cc3cccc(Cl)c3)c2)c1 [QT74, 1,3-Bis-(3-chlorobenzyl)imidazolium bromide]	3.3 ± 0.4	334.2 ± 0.4			
C[n+]1ccn(CCCCCCn2cc[n+](C)c2)c1 [QT87, 1,6-Bis-(3-methylimidazolium-1-yl)hexane diiodide]	2.6 ± 0.8	146 ± 14	156 to 157		
c1cn(CCCCCCCCCCCCCCCCCCCCn2ccnc2)cn1 [QT-115, 1,20-Bis-(1H-imidazol-1-yl)eicosane]			58 to 59		
Cn1cc[n+](C)c1 [QT70, 1,3-Dimethylimidazolium iodide]	543 ± 66	894 ± 19			
Cl.Cl.c1cn(CCCCCCn2ccnc2)cn1			220 to 221		
